Reference: PubChem BioAssay (NCI)
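Grown in 96-well plates, cells were treated for 48 hours with each compound at five concentrations. Insufficient inhibition: endpoint recorded as highest concentration tested. GI50 is the concentration that inhibits growth by half. TGI: total growth inhibition.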

Tests used:
Experiment in all cases: DTP human tumour cell line panel, 48 h
NCI-H522 lung = test system: NCI-H522 lung
OVCAR-8 ovarian = test system: OVCAR-8 ovarian
HOP-92 NSCLC = test system: HOP-92 NSCLC
SF-539 CNS = test system: SF-539 CNS
U251 CNS = test system: U251 CNS
RXF 393 renal = test system: RXF 393 renal
UACC-257 melanoma = test system: UACC-257 melanoma
ACHN renal = test system: ACHN renal
TK-10 renal = test system: TK-10 renal
RPMI-8226 leukemia = test system: RPMI-8226 leukemia
A498 renal = test system: A498 renal
SNB-75 CNS = test system: SNB-75 CNS
UO-31 renal = test system: UO-31 renal
LOX IMVI melanoma = test system: LOX IMVI melanoma
OVCAR-5 ovarian = test system: OVCAR-5 ovarian
MDA-MB-231 breast = test system: MDA-MB-231 breast
EKVX NSCLC = test system: EKVX NSCLC
786-0 renal = test system: 786-0 renal
MOLT-4 leukemia = test system: MOLT-4 leukemia
UACC-62 melanoma = test system: UACC-62 melanoma
M14 melanoma = test system: M14 melanoma
HT29 colon = test system: HT29 colon
BT-549 breast = test system: BT-549 breast
HCT-15 colon = test system: HCT-15 colon
SF-295 CNS = test system: SF-295 CNS
NCI/ADR-RES ovarian = test system: NCI/ADR-RES ovarian
COLO 205 colon = test system: COLO 205 colon
NCI-H23 lung = test system: NCI-H23 lung
CCRF-CEM leukemia = test system: CCRF-CEM leukemia
SNB-19 CNS = test system: SNB-19 CNS
OVCAR-3 ovarian = test system: OVCAR-3 ovarian
MCF7 breast = test system: MCF7 breast
SN12C renal = test system: SN12C renal
SK-MEL-2 melanoma = test system: SK-MEL-2 melanoma
HCT-116 colon = test system: HCT-116 colon
SW-620 colon = test system: SW-620 colon
SF-268 CNS = test system: SF-268 CNS
IGROV1 ovarian = test system: IGROV1 ovarian
NCI-H226 lung = test system: NCI-H226 lung
SK-MEL-28 melanoma = test system: SK-MEL-28 melanoma
HS 578T breast = test system: HS 578T breast
MDA-MB-435 = test system: MDA-MB-435
CAKI-1 renal = test system: CAKI-1 renal
OVCAR-4 ovarian = test system: OVCAR-4 ovarian
HL-60(TB) leukemia = test system: HL-60(TB) leukemia
MALME-3M melanoma = test system: MALME-3M melanoma
SR leukemia = test system: SR leukemia
K-562 leukemia = test system: K-562 leukemia
A549 NSCLC = test system: A549 NSCLC
NCI-H460 lung = test system: NCI-H460 lung
SK-OV-3 ovarian = test system: SK-OV-3 ovarian
HCC-2998 colon = test system: HCC-2998 colon
DU-145 prostate = test system: DU-145 prostate
KM12 colon = test system: KM12 colon
PC-3 prostate = test system: PC-3 prostate
T-47D breast = test system: T-47D breast
SK-MEL-5 melanoma = test system: SK-MEL-5 melanoma
HOP-62 NSCLC = test system: HOP-62 NSCLC

Question: Which results are given for `CN(C)CCCN(CCC1CCCCC1)CCC1CCCCC1`?
Answer: GI50 (NCI-H522 lung): 3.1 µM; TGI (NCI-H522 lung): 8.3 µM; GI50 (OVCAR-8 ovarian): 3.12 µM; TGI (OVCAR-8 ovarian): 7.12 µM; GI50 (HOP-92 NSCLC): 1 µM; TGI (HOP-92 NSCLC): 9.7 µM; GI50 (SF-539 CNS): 1.68 µM; TGI (SF-539 CNS): 3.16 µM; GI50 (U251 CNS): 1.67 µM; TGI (U251 CNS): 3.81 µM; GI50 (RXF 393 renal): 1.47 µM; TGI (RXF 393 renal): 4.24 µM; GI50 (UACC-257 melanoma): 0.77 µM; TGI (UACC-257 melanoma): 2.82 µM; GI50 (ACHN renal): 4.14 µM; TGI (ACHN renal): 14.4 µM; GI50 (TK-10 renal): 2.5 µM; TGI (TK-10 renal): 8.92 µM; GI50 (RPMI-8226 leukemia): 0.424 µM; TGI (RPMI-8226 leukemia): 3.86 µM; GI50 (A498 renal): 2.87 µM; TGI (A498 renal): 9.61 µM; GI50 (SNB-75 CNS): 1.8 µM; TGI (SNB-75 CNS): 6.5 µM; GI50 (UO-31 renal): 1.38 µM; TGI (UO-31 renal): 4.24 µM; GI50 (LOX IMVI melanoma): 1.47 µM; TGI (LOX IMVI melanoma): 2.91 µM; GI50 (OVCAR-5 ovarian): 2.7 µM; TGI (OVCAR-5 ovarian): 7.97 µM; GI50 (MDA-MB-231 breast): 1.62 µM; TGI (MDA-MB-231 breast): 3.97 µM; GI50 (EKVX NSCLC): 5.68 µM; TGI (EKVX NSCLC): 18.8 µM; GI50 (786-0 renal): 2.74 µM; TGI (786-0 renal): 9.16 µM; GI50 (MOLT-4 leukemia): 1.85 µM; TGI (MOLT-4 leukemia): 7.93 µM; GI50 (UACC-62 melanoma): 1.79 µM; TGI (UACC-62 melanoma): 3.35 µM; GI50 (M14 melanoma): 1.87 µM; TGI (M14 melanoma): 3.66 µM; GI50 (HT29 colon): 0.73 µM; TGI (HT29 colon): 6.81 µM; GI50 (BT-549 breast): 7.74 µM; TGI (BT-549 breast): 22.2 µM; GI50 (HCT-15 colon): 1.46 µM; TGI (HCT-15 colon): 3.59 µM; GI50 (SF-295 CNS): 1.95 µM; TGI (SF-295 CNS): 4.51 µM; GI50 (NCI/ADR-RES ovarian): 0.683 µM; TGI (NCI/ADR-RES ovarian): 7 µM; GI50 (COLO 205 colon): 1.48 µM; TGI (COLO 205 colon): 3.36 µM; GI50 (NCI-H23 lung): 4.8 µM; TGI (NCI-H23 lung): 17.9 µM; GI50 (CCRF-CEM leukemia): 1.72 µM; TGI (CCRF-CEM leukemia): 6.38 µM; GI50 (SNB-19 CNS): 5.63 µM; TGI (SNB-19 CNS): 18.8 µM; GI50 (OVCAR-3 ovarian): 2.11 µM; TGI (OVCAR-3 ovarian): 5.63 µM; GI50 (MCF7 breast): 1.32 µM; TGI (MCF7 breast): 2.62 µM; GI50 (SN12C renal): 9.79 µM; TGI (SN12C renal): 22.9 µM; GI50 (SK-MEL-2 melanoma): 1.93 µM; TGI (SK-MEL-2 melanoma): 3.73 µM; GI50 (HCT-116 colon): 1.57 µM; TGI (HCT-116 colon): 3.64 µM; GI50 (SW-620 colon): 1.75 µM; TGI (SW-620 colon): 3.31 µM; GI50 (SF-268 CNS): 5.5 µM; TGI (SF-268 CNS): 18 µM; GI50 (IGROV1 ovarian): 1.91 µM; TGI (IGROV1 ovarian): 4.65 µM; GI50 (NCI-H226 lung): 12.1 µM; TGI (NCI-H226 lung): 26.7 µM; GI50 (SK-MEL-28 melanoma): 0.593 µM; TGI (SK-MEL-28 melanoma): 1.18 µM; GI50 (HS 578T breast): 1.9 µM; TGI (HS 578T breast): 4.76 µM; GI50 (MDA-MB-435): 1.35 µM; TGI (MDA-MB-435): 3.03 µM; GI50 (CAKI-1 renal): 2.65 µM; TGI (CAKI-1 renal): 8.06 µM; GI50 (OVCAR-4 ovarian): 7.41 µM; TGI (OVCAR-4 ovarian): 27.7 µM; GI50 (HL-60(TB) leukemia): 2.09 µM; TGI (HL-60(TB) leukemia): 9.88 µM; GI50 (MALME-3M melanoma): 1.83 µM; TGI (MALME-3M melanoma): 3.77 µM; GI50 (SR leukemia): 0.731 µM; TGI (SR leukemia): 3.25 µM; GI50 (K-562 leukemia): 0.591 µM; GI50 (A549 NSCLC): 2.69 µM; TGI (A549 NSCLC): 8.5 µM; GI50 (NCI-H460 lung): 1.79 µM; TGI (NCI-H460 lung): 3.45 µM; GI50 (SK-OV-3 ovarian): 7.68 µM; TGI (SK-OV-3 ovarian): 21.5 µM; GI50 (HCC-2998 colon): 0.325 µM; TGI (HCC-2998 colon): 0.915 µM; GI50 (DU-145 prostate): 5.56 µM; TGI (DU-145 prostate): 17.7 µM; GI50 (KM12 colon): 1.78 µM; TGI (KM12 colon): 3.44 µM; GI50 (PC-3 prostate): 4.47 µM; TGI (PC-3 prostate): 17.9 µM; GI50 (T-47D breast): 1.57 µM; TGI (T-47D breast): 3.52 µM; GI50 (SK-MEL-5 melanoma): 0.545 µM; TGI (SK-MEL-5 melanoma): 2.14 µM; GI50 (HOP-62 NSCLC): 6.06 µM; TGI (HOP-62 NSCLC): 16.3 µM
